# From PubChem BioAssay (NCI)
#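 Each compound was tested at five concentrations against cells in 96-well plates for 48 hours. Here, GI50 denotes the concentration required for 50% inhibition of growth. The concentration for full growth arrest is given as TGI.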
# Tested on: SF-268 CNS
# Experiment: inhibition of tumour cell growth, NCI panel, 48 h
Structure (SMILES),GI50,TGI
COc1cc(/C(C#N)=C/c2nc3c(N4CCOCC4)nc(Cl)nc3n2C)cc(OC)c1OC,< 0.0118 µM,> 26.8 µM
Cc1nnc(NC(=O)c2nc(S(=O)(=O)Cc3ccc(F)cc3)ncc2Cl)s1,3.88 µM,16.8 µM
CC(C)[C@@H]1C=C2CC[C@H]3[C@](C)(CN)CCC[C@]3(C)[C@H]2CC1,7.27 µM,20.7 µM
O=CNc1ccc2c(c1)C(=O)c1ccccc1-2,,> 100 µM
O=C(Nc1ccc(Oc2ccc(Nc3nc4ccccc4s3)cc2)cc1)Nc1ccc(Cl)c(C(F)(F)F)c1,1.94 µM,4.74 µM
Nc1ccc(C2=NNC(=O)Cc3cc4c(cc32)OCCO4)cc1Cl,8.77 µM,> 50 µM
COc1ccc2nc3cc(Cl)ccc3c(NCCNCC(C)O)c2c1 (stereo not given),2.36 µM,12.3 µM
CCn1c(-c2nonc2N)nc2c(C#CC(C)(C)O)nc(OC[C@@H](N)c3ccccc3)cc21,5.04 µM,9.22 µM
Cn1ccc2c3c(Oc4ccc(NC(N)=O)cc4)ccnc3ccc21,> 100 µM,> 100 µM
CCCOc1cc2ccccc2cc1C(=O)Nc1nc(N)c2c(ccc3nccc32)[nH]1,0.0658 µM,2.86 µM
CC(=O)OCCOCNC(=S)N/N=C(\C)c1cnccn1,,> 100 µM
Nc1n[nH]c2cc(F)c([C@@H]3Nc4ccc5[nH]ncc5c4[C@H]4C5CCC(C5)[C@@H]34)cc12 (stereo not given in full),0.368 µM,14.9 µM
O=C(Nc1ccccc1-c1nn(C(=S)Nc2ccccc2)c(=S)n(C(=S)Nc2ccccc2)c1=O)C(F)(F)F,,> 100 µM
COC[C@H]1Cn2cc(-c3nc(Nc4ccnn4C)ncc3C)nc2C(=O)N1Cc1ccc(F)c(F)c1,29.3 µM,> 100 µM
O=c1c(-c2ccccc2)c2oc(c1-c1ccccc1)CSCc1cccc(c1)CSC2,,85.2 µM

# Tested on: IGROV1 ovarian
# Experiment: inhibition of tumour cell growth, NCI panel, 48 h
Structure (SMILES),GI50,TGI
COc1cc(/C(C#N)=C/c2nc3c(N4CCOCC4)nc(Cl)nc3n2C)cc(OC)c1OC,< 10 nM,16.6 µM
Cc1nnc(NC(=O)c2nc(S(=O)(=O)Cc3ccc(F)cc3)ncc2Cl)s1,4870 nM,19.1 µM
CC(C)[C@@H]1C=C2CC[C@H]3[C@](C)(CN)CCC[C@]3(C)[C@H]2CC1,1930 nM,4.09 µM
O=CNc1ccc2c(c1)C(=O)c1ccccc1-2,,> 100 µM
O=C(Nc1ccc(Oc2ccc(Nc3nc4ccccc4s3)cc2)cc1)Nc1ccc(Cl)c(C(F)(F)F)c1,1670 nM,3.62 µM
Nc1ccc(C2=NNC(=O)Cc3cc4c(cc32)OCCO4)cc1Cl,4540 nM,> 50 µM
COc1ccc2nc3cc(Cl)ccc3c(NCCNCC(C)O)c2c1 (stereo not given),2690 nM,10.2 µM
CCn1c(-c2nonc2N)nc2c(C#CC(C)(C)O)nc(OC[C@@H](N)c3ccccc3)cc21,5040 nM,10.4 µM
Cn1ccc2c3c(Oc4ccc(NC(N)=O)cc4)ccnc3ccc21,> 100000 nM,> 100 µM
CCCOc1cc2ccccc2cc1C(=O)Nc1nc(N)c2c(ccc3nccc32)[nH]1,519 nM,2.89 µM
CC(=O)OCCOCNC(=S)N/N=C(\C)c1cnccn1,,> 100 µM
Nc1n[nH]c2cc(F)c([C@@H]3Nc4ccc5[nH]ncc5c4[C@H]4C5CCC(C5)[C@@H]34)cc12 (stereo not given in full),218 nM,15.6 µM
O=C(Nc1ccccc1-c1nn(C(=S)Nc2ccccc2)c(=S)n(C(=S)Nc2ccccc2)c1=O)C(F)(F)F,,> 100 µM
COC[C@H]1Cn2cc(-c3nc(Nc4ccnn4C)ncc3C)nc2C(=O)N1Cc1ccc(F)c(F)c1,315 nM,> 100 µM
O=c1c(-c2ccccc2)c2oc(c1-c1ccccc1)CSCc1cccc(c1)CSC2,,> 100 µM

# Tested on: SF-539 CNS
# Experiment: inhibition of tumour cell growth, NCI panel, 48 h
Structure (SMILES),GI50,TGI
COc1cc(/C(C#N)=C/c2nc3c(N4CCOCC4)nc(Cl)nc3n2C)cc(OC)c1OC,< 0.01 µM,< 0.01 µM
Cc1nnc(NC(=O)c2nc(S(=O)(=O)Cc3ccc(F)cc3)ncc2Cl)s1,4.27 µM,15.4 µM
CC(C)[C@@H]1C=C2CC[C@H]3[C@](C)(CN)CCC[C@]3(C)[C@H]2CC1,3.44 µM,13 µM
O=CNc1ccc2c(c1)C(=O)c1ccccc1-2,,> 100 µM
O=C(Nc1ccc(Oc2ccc(Nc3nc4ccccc4s3)cc2)cc1)Nc1ccc(Cl)c(C(F)(F)F)c1,1.64 µM,3.75 µM
Nc1ccc(C2=NNC(=O)Cc3cc4c(cc32)OCCO4)cc1Cl,4.15 µM,16.8 µM
COc1ccc2nc3cc(Cl)ccc3c(NCCNCC(C)O)c2c1 (stereo not given),1.65 µM,3.51 µM
